Legend:
[1] = system: Myc gene expression; assay: Gene expression analysis of PBMC samples from relapsed/refractory AML patients: Myc; assay type: in vivo, human; details: R/R AML patients, 120, 180, 240 or 360 mg daily for seven days, C1D1 pre-dose vs C1D5, FIG. 2
Protocol: (§1) FIG. 2 illustrates that the compound of Formula (I) induces p21 and represses Myc in relapsed/refractory acute myeloid leukemia (AML) patients. PBMC samples from the patients were used for the gene expression analyses. C1D1 refers to Cycle 1 Day 1. C1D5 refers to Cycle 1 Day 5.
(§2) Effects of the compound of Formula (I) were investigated on the gene expression of p21 and Myc in the AML patients.
(§3) In dose-escalation phase study, the dosing of the compound of Formula (I) is 120 mg (three patients); 180 mg (2 patients), 240 mg (8 patients), and 360 mg (4 patients) daily for seven days, with different ‘off-treatment’ duration depending on cohort assignments. The peripheral blood mononuclear cell (PBMC) samples were taken from patients pre-dosing on day 1 of cycle 1, and day 5 of cycle 1.

[2] = system: p21 gene expression; assay: Gene expression analysis of PBMC samples from relapsed/refractory AML patients: p21; assay type: in vivo, human; details: R/R AML patients, 120, 180, 240 or 360 mg daily for seven days, C1D1 pre-dose vs C1D5, FIG. 2
Protocol: as §1, §2, §3

[3] = system: p21 gene expression; assay: Gene expression analysis of PBMC samples from relapsed/refractory myelofibrosis patients: p21; assay type: in vivo, human; details: R/R myelofibrosis patients, 120 mg or 240 mg for 7 days or 240 mg for 5 days, C1D1 pre-dose vs C1D5, C1D6/8, FIG. 1
Description: (§4) FIG. 1 illustrates that the compound of Formula (I) induces p21 and represses Myc in relapsed/refractory myelofibrosis (R/R MF) patients. PBMC samples from the patients were used for the gene expression analyses. fdr.q refers to false discovery rate adjusted significance value for change in normalized gene expression. C1D1 refers to Cycle 1, Day 1. C1D5 refers to Cycle 1, Day 5. C1D6/8 refers to Cycle 1, Day 6 or 8.
(§5) Effects of the compound of Formula (I) were investigated on the gene expression of p21 and Myc in the patients of relapsed/refractory myelofibrosis. In the study, The compound of Formula (I) is administered at 120 mg for 7 days for Cohort 1, 240 mg for 7 days for Cohort 2, 240 mg for 7 days for Cohort 3, and 240 mg for 5 days for Cohort 4.
(§6) The peripheral blood mononuclear cell (PBMC) samples were taken from the patients pre-dosing on day 1 of cycle 1, day 5 of cycle 1, day 6 of cycle 1, and day 8 of cycle 1.

[4] = system: Myc gene expression; assay: Gene expression analysis of PBMC samples from relapsed/refractory myelofibrosis patients: Myc; assay type: in vivo, human; details: R/R myelofibrosis patients, 120 mg or 240 mg for 7 days or 240 mg for 5 days, C1D1 pre-dose vs C1D5, C1D6/8, FIG. 1
Description: as §4, §5, §6

[5] = system: other members of the CD28 family; details: selectivity; cited from earlier work

Molecule | effect on Myc gene expression [1] | effect on p21 gene expression [2] | effect on p21 gene expression [3] | effect on Myc gene expression [4] | binding to other members of the CD28 family [5]
CC(C)[C@@H](CS(=O)(=O)C(C)C)N1C(=O)[C@@](C)(CC(=O)O)CC(c2cccc(Cl)c2)[C@H]1c1ccc(Cl)cc1 (stereo partly drawn) [Formula (I), 2-((3R,5R,6S)-5-(3-chlorophenyl)-6-(4-chlorophenyl)-1-((S)-1-(isopropylsulfony1)-3-methylbutan-2-y1)-3-methyl-2-oxopiperidin-3-yl) acetic acid] | represses | induces | induces | represses | –
5C4: fully human IgG4 antibody blocking the PD-1 receptor; 5C4 in WO 2006/121168 and U.S. Pat. No. 8,008,449 [Formula 5C4] | – | – | – | – | do not bind
